According to patent publication US7109380B2, “Cyclopentenedione antifungal compounds and methods for their use” (The University of Mississippi, priority 2004, dated 2006):
Values after ≈ are worked out from the molar mass of the structure shown.

Key:
[1] = tested on: Cryptococcus neoformans ATCC 90113; assay: In vitro antifungal susceptibility testing (modified NCCLS method); type: cell-based; settings: Cryptococcus neoformans, ATCC90113; Cr. neoformans ATCC 90113, Table 3; read-out: IC50 (50% inhibitory concentration)
C. albicans ATCC 90028 = assay: In vitro antimicrobial assay (modified NCCLS), Candida media pH 4.5; type: cell-based, Candida albicans; settings: Candida albicans, ATCC90028, C. albicans ATCC 90028, pH 4.5, Table 3
C. glabrata ATCC 90030 = assay: as above; type: cell-based, Candida glabrata; settings: Nakaseomyces glabratus, ATCC90030, C. glabrata ATCC 90030, pH 4.5
C. krusei ATCC 6258 = assay: as above; type: cell-based, Candida krusei; settings: Pichia kudriavzevii, ATCC6258; C. krusei ATCC 6258, pH 4.5; read-out: IC50 (50% inhibitory concentration)
Botrytis cinerea = assay: 96-well microtiter fungal growth assay; type: cell-based;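 further: percent relative to untreated positive growth controls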
From the text: (§1) Pathogen collection. Isolates of Colletotrichum acutatum Simmonds, Colletotrichum fragariae Brooks, and Colletotrichum gloeosporioides (Penz.) Penz. & Sacc. in Penz. were obtained from B. J. Smith, USDA, ARS, Small Fruit Research Station, Poplarville, Mass. Colletotrichum fragariae (isolate CF63), C. acutatum (isolate CAGoff), and C. gloeosporioides (isolate CG162) were used for all pathogen and bioautography studies. Isolate CF63 is one of the most virulent isolates at infecting strawberry plants and inducing both crown and fruit rot (Smith and Black, 1990). CF63, CAGoff, and CG162 were used as standard test isolates because of our extensive knowledge of these isolates and their known fungicide sensitivity profiles in both bioautography and microtiter formats. The three Colletotrichum species were isolated from strawberry (Fragaria xananassa Duchesne). Botrytis cinerea Pers.:Fr, was isolated from commercial grape (Vitis vinifera L.) and Fusarium oxysporum Schlechtend:Fr from orchid (Cynoches sp.) by David E. Wedge, USDA ARS Natural Products Utilization Research Unit. Phomopsis viticola (Sacc.) and P. obscurans (Ellis & Everh.) Sutton were from Mike A. Ellis, Ohio State University, Wooster, Ohio. Fungi were grown on potato-dextrose agar (PDA, Difco, Detroit Mich.) in 9 cm petri dishes and incubated in a growth chamber at 24±2° C. and under cool-white fluorescent lights ([…]·m^−2·sec^−1 light) with 12-h photoperiod.
(§2) Inoculum preparation. Conidia were harvested from 7–10 day-old cultures by flooding plates with 5 mL of sterile distilled water and dislodging conidia by softly brushing the colonies with an L-shaped glass rod. Conidial suspensions were filtered through sterile miracloth (Calbiochem-Novabiochem Corp., La Jolla Calif.) to remove mycelia. Conidia concentrations were determined photometrically, from a standard curve based on the absorbance at 625 nm and suspensions were then adjusted with sterile distilled water to a concentration of 1.0×10^6 conidia/mL.
(§3) Microtiter assay. A standardized 96-well microtiter plate assay developed for discovery of natural product fungicidal agents. A 96-well microtiter assay was used to determine sensitivity of B. cinerea, C. acutatum, C. fragariae, C. gloeosporioides, F. oxysporum, Phomopsis viticola, and P. obscurans to the various antifungal agents in comparison with known fungicidal standards. Vinclozolin, captan, and thiabendazole, which represent three different modes of action, were used as standards in this experiment. Each fungus was challenged in a dose-response format using test compounds where the final treatment concentrations were 0.3, 3.0 and 30.0 μM. Microtiter plates (Nunc MicroWell, untreated; Roskilde, Denmark) were covered with a plastic lid and incubated in a growth chamber at 24±1 C and 12 h photoperiod under 60±5 μmol light. Growth was then evaluated by measuring absorbance of each well at 620 nm using a microplate photometer (Packard Spectra Count, Packard Instrument Co., Downers Grove, Ill.).
(§4) Microbioassay Experimental Design. Chemical sensitivity of each fungus 96-well microtiter assay is used to determine sensitivity of B. cinerea, C. acutatum, C. fragariae, C. gloeosporioides, F. oxysporum, Phomopsis viticola, and P. obscurans. Each chemical is evaluated in duplicate at each dose (0.3, 3.0 and 30.0 μM) and repeated twice in time. Sixteen wells containing broth and inoculum serves as positive controls, eight wells containing solvent at the appropriate concentration and broth without inoculum are used as negative controls. Mean absorbance values and standard errors is used to evaluate fungal growth at 48 hrs and 72 hrs except for P. obscurans and P. viticola the data are recorded at 120 hrs. […] Treatments are arranged as a split-plot design replicated twice in time. Whole-plots were fungal isolates and sub-plots are chemicals. Each dose level and response time is analyzed separately. […]

Colletotrichum acutatum = assay: 96-well microtiter fungal growth assay; type: cell-based;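 further: percent relative to untreated positive growth controls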
From the text: as §1, §2, §3, §4

Colletotrichum fragariae = assay: 96-well microtiter fungal growth assay; type: cell-based;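 further: percent relative to untreated positive growth controls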
From the text: as §1, §2, §3, §4

[2] = tested on: Colletotrichum gloeosporioides; assay: 96-well microtiter fungal growth assay; type: cell-based;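 further: percent relative to untreated positive growth controls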
From the text: as §1, §2, §3, §4

Fusarium oxysporum = assay: 96-well microtiter fungal growth assay; type: cell-based;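 further: percent relative to untreated positive growth controls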
From the text: as §1, §2, §3, §4

Phomopsis obscurans = assay: 96-well microtiter fungal growth assay; type: cell-based
From the text: as §1, §2, §3
(§5) Microbioassay Experimental Design. Chemical sensitivity of each fungus 96-well microtiter assay is used to determine sensitivity of B. cinerea, C. acutatum, C. fragariae, C. gloeosporioides, F. oxysporum, Phomopsis viticola, and P. obscurans. Each chemical is evaluated in duplicate at each dose (0.3, 3.0 and 30.0 μM) and repeated twice in time. Sixteen wells containing broth and inoculum serves as positive controls, eight wells containing solvent at the appropriate concentration and broth without inoculum are used as negative controls. […] Treatments are arranged as a split-plot design replicated twice in time. Whole-plots were fungal isolates and sub-plots are chemicals. Each dose level and response time is analyzed separately. The SAS system's analysis of variance procedure (Statistical Analysis System, Cary, N.C.) is used to identify significant factors and Fisher's protected LSD is used to separate means.

Phomopsis viticola = assay: 96-well microtiter fungal growth assay; type: cell-based;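 further: percent relative to untreated positive growth controls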
From the text: as §1, §2, §3, §5

[3] = read-out: IC50 (50% inhibitory concentration)

Structure (SMILES): COC(C)=C1C(=O)C=C(C)C1=O [Compound 6, 2-(1-methoxy-ethylidene)-4-methyl-cyclopent-4-ene-1,3-dione]
- IC50 [1]: 5 µg/mL (≈ 30.1 µM)
- IC50 (C. albicans ATCC 90028; [3]): 2 µg/mL (≈ 12 µM)
- MFC (C. albicans ATCC 90028; read-out: MFC): 20 µg/mL (≈ 120 µM)
- MIC (C. albicans ATCC 90028; read-out: MIC): 5 µg/mL (≈ 30.1 µM)
- IC50 (C. glabrata ATCC 90030; [3]): 3.5 µg/mL (≈ 21.1 µM)
- MIC (C. glabrata ATCC 90030; read-out: MIC): 5 µg/mL (≈ 30.1 µM)
- IC50 (C. krusei ATCC 6258): 10 µg/mL (≈ 60.2 µM)

Structure (SMILES): CO/C=C(/C(=O)OC)c1ccccc1Oc1cc(Oc2ccccc2C#N)ncn1 [Azoxystrobin]
- Mean percent fungal growth inhibition of Botrytis cinerea (Botrytis cinerea; 0.3 μm, 48 hrs): −30.4 ± 40.8%
- Mean percent fungal growth inhibition of Botrytis cinerea (Botrytis cinerea; 0.3 μm, 72 hrs): −67.3 ± 7.6%
- Mean percent fungal growth inhibition of Botrytis cinerea (Botrytis cinerea; 3.0 μm, 48 hrs): −45.8 ± 32.5%
- Mean percent fungal growth inhibition of Botrytis cinerea (Botrytis cinerea; 3.0 μm, 72 hrs): −79.8 ± 3.6%
- Mean percent fungal growth inhibition of Botrytis cinerea (Botrytis cinerea; 30 μm, 48 hrs): −58.3 ± 26.5%
- Mean percent fungal growth inhibition of Botrytis cinerea (Botrytis cinerea; 30 μm, 72 hrs): −89.1 ± 2.1%
- Mean percent fungal growth inhibition of Colletotrichum acutatum (Colletotrichum acutatum; 0.3 μm, 48 hrs): −75.1 ± 1.8%
- Mean percent fungal growth inhibition of Colletotrichum acutatum (Colletotrichum acutatum; 0.3 μm, 72 hrs): −46.0 ± 1.4%
- Mean percent fungal growth inhibition of Colletotrichum acutatum (Colletotrichum acutatum; 3.0 μm, 48 hrs): −89.2 ± 1.8%
- Mean percent fungal growth inhibition of Colletotrichum acutatum (Colletotrichum acutatum; 3.0 μm, 72 hrs): −77.4 ± 1.6%
- Mean percent fungal growth inhibition of Colletotrichum acutatum (Colletotrichum acutatum; 30 μm, 48 hrs): −94.3 ± 1.1%
- Mean percent fungal growth inhibition of Colletotrichum acutatum (Colletotrichum acutatum; 30 μm, 72 hrs): −84.1 ± 0.8%
- Mean percent fungal growth inhibition of Colletotrichum fragariae (Colletotrichum fragariae; 0.3 μm, 48 hrs): −68.8 ± 4.0%
- Mean percent fungal growth inhibition of Colletotrichum fragariae (Colletotrichum fragariae; 0.3 μm, 72 hrs): −33.5 ± 17.4%
- Mean percent fungal growth inhibition of Colletotrichum fragariae (Colletotrichum fragariae; 3.0 μm, 48 hrs): −78.9 ± 4.4%
- Mean percent fungal growth inhibition of Colletotrichum fragariae (Colletotrichum fragariae; 3.0 μm, 72 hrs): −80.6 ± 4.8%
- Mean percent fungal growth inhibition of Colletotrichum fragariae (Colletotrichum fragariae; 30 μm, 48 hrs): −82.0 ± 4.9%
- Mean percent fungal growth inhibition of Colletotrichum fragariae (Colletotrichum fragariae; 30 μm, 72 hrs): −86.4 ± 4.5%
- Mean percent fungal growth inhibition of Colletotrichum gloeosporoides ([2]; 0.3 μm, 48 hrs): −91.2 ± 2.1%
- Mean percent fungal growth inhibition of Colletotrichum gloeosporoides ([2]; 0.3 μm, 72 hrs): −71.0 ± 1.4%
- Mean percent fungal growth inhibition of Colletotrichum gloeosporoides ([2]; 3.0 μm, 48 hrs): −96.3 ± 0.9%
- Mean percent fungal growth inhibition of Colletotrichum gloeosporoides ([2]; 3.0 μm, 72 hrs): −87.6 ± 2.0%
- Mean percent fungal growth inhibition of Colletotrichum gloeosporoides ([2]; 30 μm, 48 hrs): −97.7 ± 0.5%
- Mean percent fungal growth inhibition of Colletotrichum gloeosporoides ([2]; 30 μm, 72 hrs): −89.8 ± 1.1%
- Mean percent fungal growth inhibition of Fusarium oxysporum (Fusarium oxysporum; 0.3 μm, 48 hrs): −13.0 ± 6.0%
- Mean percent fungal growth inhibition of Fusarium oxysporum (Fusarium oxysporum; 0.3 μm, 72 hrs): 3.8 ± 3.6%
- Mean percent fungal growth inhibition of Fusarium oxysporum (Fusarium oxysporum; 3.0 μm, 48 hrs): −66.4 ± 1.4%
- Mean percent fungal growth inhibition of Fusarium oxysporum (Fusarium oxysporum; 3.0 μm, 72 hrs): −40.1 ± 3.5%
- Mean percent fungal growth inhibition of Fusarium oxysporum (Fusarium oxysporum; 30 μm, 48 hrs): −87.3 ± 0.6%
- Mean percent fungal growth inhibition of Fusarium oxysporum (Fusarium oxysporum; 30 μm, 72 hrs): −64.6 ± 0.8%
- Percent change in fungal growth vs control (negative = inhibition) (Phomopsis obscurans; 0.3 μm, 120 hrs): −73.2 ± 6.7%
- Percent change in fungal growth vs control (negative = inhibition) (Phomopsis obscurans; 0.3 μm, 144 hrs): −70.2 ± 7.0%
- Percent change in fungal growth vs control (negative = inhibition) (Phomopsis obscurans; 3.0 μm, 120 hrs): −90.9 ± 6.5%
- Percent change in fungal growth vs control (negative = inhibition) (Phomopsis obscurans; 3.0 μm, 144 hrs): −87.5 ± 5.3%
- Percent change in fungal growth vs control (negative = inhibition) (Phomopsis obscurans; 30 μm, 120 hrs): −99.3 ± 0.5%
- Percent change in fungal growth vs control (negative = inhibition) (Phomopsis obscurans; 30 μm, 144 hrs): −98.2 ± 0.6%
- Mean percent fungal growth inhibition of Phomopsis viticola (Phomopsis viticola; 0.3 μm, 120 hrs): −29.5 ± 45.0%
- Mean percent fungal growth inhibition of Phomopsis viticola (Phomopsis viticola; 0.3 μm, 144 hrs): −73.4 ± 16.0%
- Mean percent fungal growth inhibition of Phomopsis viticola (Phomopsis viticola; 3.0 μm, 120 hrs): −124.5 ± 33.0%
- Mean percent fungal growth inhibition of Phomopsis viticola (Phomopsis viticola; 30 μm, 120 hrs): −154.1 ± 39.4%
- Mean percent fungal growth inhibition of Phomopsis viticola (Phomopsis viticola; 30 μm, 144 hrs): −97.9 ± 1.3%
